“And” between values parts separate entries of the source, which are not always exact repeats. Equal values may be shown once. The source made the active and inactive calls.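 The calls were made as follows: active = compounds giving half or more protection of infected cells from virus-caused growth loss, again on retest; inactive = the rest.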
Test system: CEM cells HIV-1 protection, formazan growth assay
Assay: NCI AIDS Antiviral Assay
Details: for IC50: measured here: growth of uninfected CEM cells
Protocol: The ability of compounds to protect human CEM cells from HIV-1 infection is measured as a screen for new compounds capable of inhibiting the HIV virus. Five concentrations of drug were tested on uninfected and infected cells and cell growth was measured using a soluble formazan assay. […] Compounds that provided at least 50% protection were retested. Compounds that provided at least 50% protection on retest were listed as moderately active. Compounds that reproducibly provided 100% protection were listed as confirmed active. […] Note that the inability to provide protection could be due to toxicity.

Q: How did the EC50 turn out when `COc1ccc(OC)c(/C=C/c2ccc3ccccc3n2)c1` was run?
A: > 24.5 µM

Q: And the IC50?
A: > 24.5 µM

Q: `CC(C)(C)C1CC[C@H]2c3c([nH]c4ccccc34)[C@H]3C(=O)N(c4ccc(F)cc4)C(=O)[C@H]3[C@H]2C1` (stereo not given in full) was tested. Which EC50 did it give?
A: > 11.7 µM

Q: What about the IC50 of the same compound?
A: > 11.7 µM

Q: Which results are given for `Cc1cc(S(=O)(=O)NC2=NCc3nc4ccccc4n32)c(S)cc1Cl`?
A: EC50: > 200 µM; IC50: 35.5 µM

Q: `COc1ccc(C2=C/C(=C3/C(=O)C=C(C)OC3=O)SS2)cc1` was tested. Which EC50 did it give?
A: > 100 µM

Q: What about the IC50 of the same compound?
A: > 100 µM

Q: Which outcome does the source give for `O=C(NO)Nc1ccc(Cl)c(Cl)c1` here?
A: inactive

Q: What about the IC50 of the same compound?
A: 56.2 µM

Q: With `COC1(OC)CC2C(=O)CCCC21OC(C)=O` (stereo not given) as the compound, how does the EC50 read?
A: > 1020 µM

Q: And the IC50?
A: 22.4 µM

Q: Which EC50 does the source give for `CC(C)CCCC(C)[C@H]1CC[C@H]2[C@H]3CC[C@H]4C[C@@H](CCC=C(c5cc(Cl)c(O)c(C(=O)O)c5)c5cc(Cl)c(O)c(C(=O)O)c5)CC[C@]4(C)[C@H]3CC[C@]12C` (stereo not given in full) here?
A: > 200 µM

Q: And the IC50?
A: > 200 µM

Q: Which results are given for `O=C(/N=N/C(=O)N1CCCCC1)N1CCCCC1`?
A: EC50: > 67.6 µM; IC50: 28.8 µM

Q: How did the EC50 turn out when `O=c1ncc2[nH]c(=S)[nH]c2[nH]1` was run?
A: > 200 µM

Q: And the IC50?
A: > 200 µM

Q: How did the outcome turn out when `O=[N+]([O-])c1ccc(C2=CSC3=NCCN23)cc1` was run?
A: inactive

Q: What does the source list for `COc1ccc(C(O)/C(=N\NC(N)=S)c2nc3ccc([N+](=O)[O-])cc3[nH]c2=O)cc1OC` (stereo not given)?
A: EC50: > 288 µM; IC50: > 288 µM

Q: For `COc1ccccc1C12OC(=O)C1(C)Oc1ccccc1C2=O` (stereo not given), which outcome is on record?
A: inactive

Q: With `Cc1ccc(Nc2cc(=O)[nH]c(=S)[nH]2)cc1` as the compound, how does the EC50 read?
A: > 200 µM

Q: And the IC50?
A: > 200 µM

Q: With `COc1ccc2nc(N/N=C/c3ccc(C)s3)cc(C)c2c1` as the compound, how does the EC50 read?
A: > 200 µM

Q: What about the IC50 of the same compound?
A: 12.9 µM

Q: `OCC1C=CC(n2cnc3c(Cl)ncnc32)CC1` (stereo not given) was tested. Which EC50 did it give?
A: > 200 µM

Q: And the IC50?
A: 34.7 µM

Q: How did the EC50 turn out when `O=C(O)CSC(=S)CCCCCCCCCCC(=S)SCC(=O)O` was run?
A: > 120 µM

Q: And the IC50?
A: > 120 µM

Q: Which results are given for `O=C1c2cc3c(cc2CC12Cc1cc4c(cc1C2)CCC4)CCC3`?
A: EC50: > 200 µM; IC50: > 200 µM

Q: What does the source list for `O=C1CC(c2ccc([N+](=O)[O-])cc2)=Nc2ccccc2N1`?
A: EC50: > 200 µM; IC50: > 200 µM

Q: `C[n+]1cn(-c2ccc([N+](=O)[O-])cn2)c2ccccc21` was tested. Which EC50 did it give?
A: > 200 µM

Q: And the IC50?
A: 170 µM

Q: Which EC50 does the source give for `Nc1ccc(/C=C/c2ccc3cccnc3c2)cc1` here?
A: 0.0631 µM

Q: What about the IC50 of the same compound?
A: > 200 µM

Q: What does the source list for `CC(C)C[C@H]1[C@@H](OCc2ccccc2)COS(=O)(=O)N1[C@H](C)c1ccccc1`?
A: EC50: > 200 µM; IC50: 11.2 µM

Q: How did the EC50 turn out when `CC(C)Cn1c(N)c(N=O)c(=O)n(C)c1=O` was run?
A: > 200 µM

Q: What about the IC50 of the same compound?
A: > 200 µM

Q: `Fc1cc(-c2ncc(Cl)cc2Cl)c2cccccc1-2` was tested. Which EC50 did it give?
A: > 100 µM

Q: What about the IC50 of the same compound?
A: > 100 µM

Q: For `COC(=O)C1CSC(c2csc(CCN)n2)=N1` (stereo not given), which outcome is on record?
A: inactive

Q: How did the EC50 turn out when `N=c1c2c(-c3ccccc3)c[nH]c2ncn1N` was run?
A: > 200 µM

Q: What about the IC50 of the same compound?
A: > 200 µM

Q: How did the EC50 turn out when `O=C1OC(Cc2ccccc2)(N2CCCC2=O)C1c1ccccc1` (stereo not given) was run?
A: > 112 µM

Q: And the IC50?
A: > 112 µM

Q: With `O=[N+]([O-])c1ccc(N2N=C(c3ccc(NCc4nc5ccccc5[nH]4)cc3)CC2c2ccco2)cc1` (stereo not given) as the compound, how does the EC50 read?
A: > 15.1 µM

Q: And the IC50?
A: > 15.1 µM

Q: Which EC50 does the source give for `Nc1c(CCc2ccccn2)ccc2ccccc12` here?
A: > 200 µM

Q: And the IC50?
A: 166 µM

Q: For `CC1=CC(c2ccccc2)n2c(nc3cc4ccccc4cc32)N1` (stereo not given), which EC50 is on record?
A: > 200 µM

Q: And the IC50?
A: > 200 µM

Q: With `CC(C)C1OC2(C)OC(=N)C1(C#N)C(C#N)(C#N)C2C` (stereo not given) as the compound, how does the EC50 read?
A: > 200 µM

Q: And the IC50?
A: 12 µM

Q: What does the source list for `CN(C)CCCSCCOc1nccc(-c2ccc(-c3ccc(-c4ccnc(OCCSCCCN(C)C)n4)s3)s2)n1`?
A: EC50: 1.1 µM; IC50: 2.75 µM

Q: `C[N+]1(Cc2ccc([N+](=O)[O-])cc2)CCC(CCCCCCCC2CC[N+](C)(Cc3ccc([N+](=O)[O-])cc3)CC2)CC1` (stereo not given) was tested. Which EC50 did it give?
A: > 200 µM

Q: What about the IC50 of the same compound?
A: 14.5 µM

Q: Which EC50 does the source give for `CC(C)(C)OC(=O)N[C@H]1CC(=O)c2ccccc2N(CC(=O)O)C1=O` here?
A: > 251 µM

Q: What about the IC50 of the same compound?
A: > 251 µM

Q: With `Cc1cn(C2CC(N=[N+]=[N-])C(COC(=O)CCCCCCCCCCCc3ccccc3)O2)c(=O)[nH]c1=O` (stereo not given) as the compound, how does the EC50 read?
A: 0.0955 µM

Q: And the IC50?
A: 89.1 µM

Q: With `O=C([O-])c1n[nH]c([O-])c1N=Nc1ccc(/C=C/c2ccc(N=Nc3c(C(=O)[O-])n[nH]c3[O-])cc2S(=O)(=O)[O-])c(S(=O)(=O)[O-])c1.[Cu+2].[Cu+2].[Na+]` as the compound, how does the EC50 read?
A: > 50.1 µM

Q: What about the IC50 of the same compound?
A: > 50.1 µM

Q: How did the EC50 turn out when `CCSc1nc(N)c2c(-c3ccccc3)c3c(nc2n1)CCC3` was run?
A: > 100 µM

Q: And the IC50?
A: > 100 µM

Q: `Cc1ccc(-c2c(C#N)c(-c3ccc(Cl)cc3)c(C#N)c(=O)n2NS(=O)(=O)c2ccccc2)cc1` was tested. Which EC50 did it give?
A: > 200 µM

Q: And the IC50?
A: 29.5 µM

Q: Which results are given for `CC1OC2CC(=O)OC2C2=C1C(=O)c1c(O)cccc1C2=O` (stereo not given)?
A: EC50: > 2 µM; IC50: 0.0282 µM

Q: With `Fc1cccc2c1[nH]c1c2ncc2[nH]c3ccccc3c21` as the compound, how does the EC50 read?
A: > 20 µM

Q: And the IC50?
A: 6.92 µM

Q: With `COC(C(=O)C(O)C(C)O)C1Cc2cc3cc(OC4CC(OC(C)=O)C(OC5CC(O)C(OC)C(C)O5)C(C)O4)cc(O)c3c(O)c2C(=O)C1OC1CC(OC2CC(OC3CC(C)(O)C(OC(=O)C(C)C)C(C)O3)C(O)C(C)O2)C(O)C(C)O1` (stereo not given) as the compound, how does the EC50 read?
A: > 2.09 µM

Q: What about the IC50 of the same compound?
A: 0.0107 µM and 0.00389 µM

Q: `CCOC(=O)C(NC(=O)CC)(Nc1ccc(S(=O)(=O)Nc2onc(C)c2C)cc1)C(F)(F)F` (stereo not given) was tested. Which EC50 did it give?
A: > 200 µM

Q: And the IC50?
A: > 200 µM

Q: Which results are given for `CCC1=C(C(C)=O)[C@@H]2CCCCC(C(=O)OC)[C@@H]2C1=O` (stereo not given in full)?
A: EC50: > 200 µM; IC50: > 200 µM

Q: How did the EC50 turn out when `O=c1[nH]c(=O)n(C2CC(O)C(CO)O2)cc1COCC(F)(F)F` (stereo not given) was run?
A: > 251 µM

Q: What about the IC50 of the same compound?
A: > 251 µM

Q: Which results are given for `COc1ccc(N=C2C(=Nc3ccc(OC)cc3)N(S(=O)(=O)c3ccccc3)C(=S)N2c2ccc(OC)cc2)cc1`?
A: EC50: > 200 µM; IC50: > 200 µM

Q: Which EC50 does the source give for `CCOc1ccccc1/C=C1\NC(=O)N(/C=C2\C(=O)Oc3ccccc3C2=O)C1=O` here?
A: > 200 µM

Q: What about the IC50 of the same compound?
A: 87.1 µM

Q: Which results are given for `O=C(Cc1ccccc1)NNc1nc(NNC(=O)c2ccncc2)nc(Nc2ccc([N+](=O)[O-])cc2)n1`?
A: EC50: > 100 µM; IC50: 11.5 µM

Q: What does the source list for `O=C(Nc1ccc(NC(=O)Nc2cc(C(=O)Nc3ccc(C4=NCCN4)cc3)ccc2C(=O)Nc2ccc(C3=NCCN3)cc2)cc1)Nc1cc(C(=O)Nc2ccc(C3=NCCN3)cc2)ccc1C(=O)Nc1ccc(C2=NCCN2)cc1`?
A: EC50: 31.6 µM; IC50: > 100 µM

Q: For `Cc1ccc(/C=c2\cc3oc(=O)c4cccc(c4-3)c2=O)cc1`, which EC50 is on record?
A: > 200 µM

Q: What about the IC50 of the same compound?
A: 3.8 µM

Q: What does the source list for `CC1=CCCC(C)C1(C)CC/C(C)=C/CC/C(=C/CS(=O)(=O)CCN=C(N)N)CO` (stereo not given)?
A: EC50: > 81.3 µM; IC50: 15.1 µM

Q: `CC(C)c1cccc(C(C)C)c1NC(=S)N=Nc1cc(C(C)(C)C)c(O)c(C(C)(C)C)c1` was tested. Which EC50 did it give?
A: > 5.75 µM

Q: And the IC50?
A: > 5.75 µM

Q: How did the EC50 turn out when `NS(=O)(=O)c1nnc(NC(=O)c2ccccc2)s1` was run?
A: > 200 µM

Q: And the IC50?
A: > 200 µM

Q: `CC12CCC(C(=O)OC1=O)C2(C)C` (stereo not given) was tested. Which EC50 did it give?
A: > 200 µM

Q: And the IC50?
A: > 200 µM

Q: Which results are given for `NS(=O)(=O)c1ccc(NC(NC(=O)C(C(F)(F)F)C(F)(F)F)(C(F)(F)F)C(F)(F)F)cc1`?
A: EC50: > 200 µM; IC50: > 200 µM

Q: Which EC50 does the source give for `Sc1ccccc1N=Cc1cccs1` here?
A: > 200 µM

Q: What about the IC50 of the same compound?
A: 93.3 µM

Q: With `Cc1c2c(cn1C)NC(=O)CN=C2c1ccccc1` as the compound, how does the EC50 read?
A: > 200 µM

Q: And the IC50?
A: > 200 µM

Q: How did the EC50 turn out when `COc1ccc(OP2OCC(C)O2)cc1` (stereo not given) was run?
A: > 1100 µM

Q: And the IC50?
A: 46.8 µM

Q: `COC1=C2CC(C)CC(OC)C(O)C(C)/C=C(\C)C(OC(N)=O)C(OC)/C=C\C=C(/C)C(=O)NC(=C(/C=N/N3CCCCC3)C1=O)C2=O` (stereo not given) was tested. Which EC50 did it give?
A: > 200 µM

Q: What about the IC50 of the same compound?
A: 3.89 µM

Q: Which EC50 does the source give for `O=C1CC(Br)C(c2ccccc2)(c2ccccc2)O1` (stereo not given) here?
A: > 81.3 µM

Q: And the IC50?
A: > 81.3 µM

Q: Which results are given for `CCCNC(=S)NN1C2CSC1CS2`?
A: EC50: > 178 µM; IC50: > 178 µM
